The values that follow come from patent EP0362382A1, “METHOD OF STERILIZING PLANT POLLEN” (VSESOJUZNY NAUCHNO-ISSLEDOVATELSKY INST. SELSKOKHOZYAISTV. …, priority 1988, dated 1989).

For one test, the system named is Winterweizen. The test is described as follows: Field test of gametocidal activity (sterilisation of anthers), winter wheat. The format is in vivo. The conditions noted are these: Sorte Korall; V. Periode der Organogenese; 2%ige wäßrige Emulsion; 12 kg/ha. The source says:
(§1) Die gametozide Aktivitat der erfindungsgemäßen Sterilisationsmittel war im Feldversuch in verschiedenen bodenklimatischen Zonen mit Teilstücken von 10 m^2 Größe in drei- bis viermaliger Wiederholung festgestellt. Jedes Sterilisationsmittel wurde mindenstens 5 Jahre lang geprüft.
(§2) Die Entwicklung der Perioden der Organogenese wird zytologisch überwacht. Die Behandlung von Pflanzen mit dem Sterilisationsmittel erfolgt am Anfang der fünften Periode der Organogenese nach Kupermann.
(§3) Mit dem Ährenschieben verwirklicht man die Isolierung von Hauptähren und anderen Stockwerken in Pergamentbeuteln. Bei Weizen und Tritikale werden Einzelisolatoren benutzt. Bei Roggen schließt man je Ähre 5 bis 7 verschiedene nebeneinander befindliche Pflanzen unter einen gemeinsamen Isolator ein. Bei Hierse wird jede Rispe getrennt isoliert. Der Sterilitätsprozentsatz (X) für Weizen, Roggen, Tritikale und Hirse wird nach der Formel [formula] ermittelt.
(§4) Die Kornzahl in nicht isolierten Ähren von Kontrollpflanzen wird bedingt für 100 % Ansetzen bei freier Bestäubung angenommen.
(§5) Um zuverlässige Angaben zu erhalten, verwendet man 20 bis 25 Isolatoren jeder Wiederholung für Weizen und Tritikale, 10 .bis 15 Isolatoren jeder Wiederholung für Roggen und Hirse.
Pflanzen des Winterweizens Sorte Mironowskaja 808 werden in der V. Periode der Organogenese durch Zerstäubung der 2%igen wäßrigen Emulsion der δ, δ' -Thiodivaleriansäure mit Hilfe einer Rückenspritze behandelt. Als Emulgiermittel wird 0,1 Masse% Kalziumalkylbenzalsulfonat mit 12 bis 14 Kohlenstoffatomen hinzugefügt. Als Adjuvans führt man in die Emulsion 0,01 Masse% Dimethylsulfoxid ein. Der Verbrauch an Präparat beträgt 20 kg/ha. Als Kontrolle dienen Pflanzen, behandelt mit einem Verdünner ohne Sterilisationsmittel. Die Ergebnisse sind in der Tabelle 1 angegeben. […] Periode der Organogenese erhalten.
Der Prozeß erfolgt analog zu dem im Beispiel 1 bescnriebenen. Als Sterilisationsmittel benutzt man 2%ige wäßrige Emulsion von Natriumsalz der δ, δ'-Thiodivaleriansäure, δ, δ' -Sulfonyldivaleriansäure, Natriumsalz der δ, δ' -Sulfonyldivaleriansäure, Kaliumsalz der δ, δ'--Sulfonyldivaleriansäure, Bis(di-n-butyläther) der δ, δ'--Thiodivaleriansäure, 4-Karboxybutyldezylsulfid bzw.
Pflanzen des Winterweizens Sorte Korall werden in der V. Periode der Organogenese (nach Kupermann) mit 2%iger wäßriger Emulsion von Bis(2-äthylhexyläther) der δ, δ' --Thiodivaleriansäure, 4-Karboxybutyldezylsulfid bzw. Bis(di--n-butyläther) der δ, δ' -Thiodivalerianqäure behandelt. Die Emulsion enthält 0,1 Masse% Kalziumalkylbenzolsulfonat mit 12 bis 14 Kohlenstoffatomen und 0,01 Masse% Dodezylsulfat. Der Verbrauch an Präparat beträgt 12 kg/ha. Als Kontrolle dienen Pflanzen, behandelt mit einem Verdünner ohne Sterilisationsmittel. Die Prüfergebnisse sind in der Tabelle 2 angegeben.
Pflanzen des Winterweizens Gordeiforme 12303 werden in der V. Periode der Organogenese (nach Kupermann) mit 2%iger wäßriger Emulsion von 4-Karboxybutyldezylsulfid, Bis(2-äthylhexyläther) der δ, δ' -Thiodivaleriansäure, δ, δ' -Sulfonyldivaleriansäure behandelt. Die Emulsion enthält als Emulgiermittel 0,1 Masse% Kalziumalkylbenzolsulfonat mit 12 bis 14 Kohlenstoffatomen und 0,01 Masse% Dimethylformamid. Der Verbrauch an Präparat beträgt 16 kg/ha. Als Kontrolle dienen Pflanzen, behandelt mit einem Verdünner ohne Sterilisationsmittel.
For the compound “Bis(di--n-butyläther) der δ, δ' -Thiodivalerianqäure [Beispiel 11]”, the “Anzahl von Körnern der Ähre bei freier Bestäubung” value is listed as 30,2, the “Anzahl von Körnern der Ähre im Isolator” value was 0,1, the “Prozentsatz der Sterilität” value is listed as 99,5% and the “Prozentsatz des Ansetzens von Körnern bei freier Bestäubung” value is given as 93,2%.

Still in this test, the particulars now being: Sorte Mironowskaja 808; V. Periode der Organogenese; 2%ige wäßrige Emulsion; 20 kg/ha.
For the compound `O=C(O)CCCCSCCCCC(=O)O` [Beispiel I, δ, δ' -Thiodivaleriansäure], the “Anzahl von Körnern der Ähre bei freier Bestäubung” value is recorded as 37,0, the “Anzahl von Körnern der Ähre im Isolator” value is listed as 0,5, the “Prozentsatz der Sterilität” value is listed as 98,8% and the “Prozentsatz des Ansetzens von Körnern bei freier Bestäubung” value is reported as 89,8%.

For “Bis(di-n-butyläther) der δ, δ'--Thiodivaleriansäure [Beispiel 6]”, the “Anzahl von Körnern der Ähre bei freier Bestäubung” value was 34,8, the “Anzahl von Körnern der Ähre im Isolator” value was 0,0, the “Prozentsatz der Sterilität” value was 100,0% and the “Prozentsatz des Ansetzens von Körnern bei freier Bestäubung” value is 84,5%.

The test system of a further test is diploidem Roggen. Description: Field test of gametocidal activity (sterilisation of anthers), diploid rye. The format is in vivo. The conditions noted are these: Sorte Gibrid 1861/79; V. und VI. Periode der Organogenese; 1%ige wäßrige Emulsion; 8 kg/ha.
From the text: as §1, §2, §3, §4, §5
Pflanzen von diploidem Roggen Sorte Wosohod 2 werden in der V. Periode der Organogenese (nach Kupermann) mit 1%iger wäßriger Emulsion von Bis(di-n-butyläther) der δ, δ' -Thiodivaleriansäure, 4-Krboxybutyldezylsulfid, Natriumsalz der δ, δ' -Thiodivaleriansäure, Bis(2-äthylhexyläther) der δ, δ' -Thiodivaleriansäure, δ, δ' -Sulfonyldivaleriansäure, Natriumsalz der δ, δ'-Sulfonyldivaleriansäure, Kaliumsalz der δ, δ' -Sulfonyldivaleriansäure behandelt. Die Emulsion enthält 0,1 Masse% […] mit 12 bis 14 Kohlenstoffatomen und 0,01 Masse% Tetrahydrofuran. Der Verbrauch an Präparat beträgt 6 kg/ha. Als Kontrolle dienen Pflanzen, behandelt mit einem Verdünner ohne Sterilisationsmittel.
Pflanzen von diploidem Roggen Sorte Gibrid 1861/79 werden in der V. und VI. Periode der Organogenese (nach Kupermann) mit 1%iger wäßriger Emulsion von Bis(di-n-butyläther) der δ, δ' -Thiodivaleriansäure, δ, δ' -Thiodivaleriansäure, Natriumsalz der δ δ' -Thiodivaleriansäure, 4-Karboxybutyldezylsulfid, δ , δ' -Sulfonyldivaleriansäure, Kaliumsalz der δ, δ' -Sulfonyldivaleriansäuleriansäure, Kaliumalz der δ' -Sulfonyldivaleriansäure, Bis(2-äthylhexyläther) der δ, δ' -Thiodivaleriansäure behandelt. Die Emulsion enthält 0,1 Masse% Kalziumalkylbenzolsulfonat mit 12 bis 14 Kohlenstoffatomen und 0,01 Masse% Dimethylformamid. Der Verbrauch an Präparat beträgt 8 kg/ha. Als Kontrolle dienen Pflanzen, behandelt mit einem Verdünner ohne Sterilisationsmittel. Die Prüfergebnisse sind in der Tabelle 10 angegeben.
With `CCCCOC(=O)CCCCSCCCCC(=O)OCCCC` [Beispiel 44, Bis(di-n-butyläther) der δ, δ' -Thiodivaleriansäure], the “Anzahl von Körnern der Ähre bei freier Bestäubung” value is listed as 60,0, the “Anzahl von Körnern der Ähre im Isolator” value was 0,0, the “Prozentsatz der Sterilität” value was 100,0% and the “Prozentsatz des Ansetzens von Körnern bei freier Bestäubung” value was 95,5%.

On to `O=C(O)CCCCSCCCCC(=O)O` [Beispiel 45, δ, δ' -Thiodivaleriansäure], for which the “Anzahl von Körnern der Ähre bei freier Bestäubung” value was 58,6, the “Anzahl von Körnern der Ähre im Isolator” value is given as 0,1, the “Prozentsatz der Sterilität” value is 99,8% and the “Prozentsatz des Ansetzens von Körnern bei freier Bestäubung” value was 93,3%.

For the compound `O=C(O)CCCCSCCCCC(=O)O` [Beispiel 46, Natriumsalz der δ δ' -Thiodivaleriansäure], the “Anzahl von Körnern der Ähre bei freier Bestäubung” value is listed as 57,1, the “Anzahl von Körnern der Ähre im Isolator” value was 0,1, the “Prozentsatz der Sterilität” value is listed as 99,8% and the “Prozentsatz des Ansetzens von Körnern bei freier Bestäubung” value is reported as 90,9%.

Turning to `CCCCCCCCCCSCCCCC(=O)O` [Beispiel 47, 4-Karboxybutyldezylsulfid], the “Anzahl von Körnern der Ähre bei freier Bestäubung” value is given as 52,8, the “Anzahl von Körnern der Ähre im Isolator” value is recorded as 0,0, the “Prozentsatz der Sterilität” value is 100,0% and the “Prozentsatz des Ansetzens von Körnern bei freier Bestäubung” value is 84,1%.

For `O=C(O)CCCCS(=O)(=O)CCCCC(=O)O` [Beispiel 48, δ , δ' -Sulfonyldivaleriansäure], the “Anzahl von Körnern der Ähre bei freier Bestäubung” value is listed as 54,7, the “Anzahl von Körnern der Ähre im Isolator” value is 0,0, the “Prozentsatz der Sterilität” value is given as 100,0% and the “Prozentsatz des Ansetzens von Körnern bei freier Bestäubung” value is reported as 87,1%.

In the case of `O=C(O)CCCCS(=O)(=O)CCCCC(=O)O` [Beispiel 49, Kaliumsalz der δ, δ' -Sulfonyldivaleriansäuleriansäure], the “Anzahl von Körnern der Ähre bei freier Bestäubung” value is 57,0, the “Anzahl von Körnern der Ähre im Isolator” value is on record as 0,0, the “Prozentsatz der Sterilität” value is listed as 100,0% and the “Prozentsatz des Ansetzens von Körnern bei freier Bestäubung” value is recorded as 90,8%.

With `CCCCC(CC)COC(=O)CCCCSCCCCC(=O)OCC(CC)CCCC` (centres unmarked) [Beispiel 50, Bis(2-äthylhexyläther) der δ, δ' -Thiodivaleriansäure], the “Anzahl von Körnern der Ähre bei freier Bestäubung” value is given as 53,2, the “Anzahl von Körnern der Ähre im Isolator” value is 0,0, the “Prozentsatz der Sterilität” value is 100,0% and the “Prozentsatz des Ansetzens von Körnern bei freier Bestäubung” value was 84,7%.

Still in this test, the particulars now being: Sorte Wosohod 2; V. Periode der Organogenese; 1%ige wäßrige Emulsion; 6 kg/ha.
As to `CCCCOC(=O)CCCCSCCCCC(=O)OCCCC` [Beispiel 37, Bis(di-n-butyläther) der δ, δ' -Thiodivaleriansäure], the “Anzahl von Körnern der Ähre bei freier Bestäubung” value is 50,9, the “Anzahl von Körnern der Ähre im Isolator” value was 0,0, the “Prozentsatz der Sterilität” value is on record as 100,0% and the “Prozentsatz des Ansetzens von Körnern bei freier Bestäubung” value is given as 93,2%.

As to `CCCCCCCCCCSCCCCC(=O)O` [Beispiel 38, 4-Krboxybutyldezylsulfid], the “Anzahl von Körnern der Ähre bei freier Bestäubung” value is on record as 50,5, the “Anzahl von Körnern der Ähre im Isolator” value is listed as 0,0, the “Prozentsatz der Sterilität” value is 100,0% and the “Prozentsatz des Ansetzens von Körnern bei freier Bestäubung” value is 92,5%.

On to `O=C(O)CCCCSCCCCC(=O)O` [Beispiel 39, Natriumsalz der δ, δ' -Thiodivaleriansäure], for which the “Anzahl von Körnern der Ähre bei freier Bestäubung” value is on record as 50,5, the “Anzahl von Körnern der Ähre im Isolator” value is reported as 0,1, the “Prozentsatz der Sterilität” value is on record as 99,8% and the “Prozentsatz des Ansetzens von Körnern bei freier Bestäubung” value is listed as 92,5%.

In the case of `CCCCC(CC)COC(=O)CCCCSCCCCC(=O)OCC(CC)CCCC` (centres unmarked) [Beispiel 40, Bis(2-äthylhexyläther) der δ, δ' -Thiodivaleriansäure], the “Anzahl von Körnern der Ähre bei freier Bestäubung” value is given as 52,9, the “Anzahl von Körnern der Ähre im Isolator” value is listed as 0,0, the “Prozentsatz der Sterilität” value is recorded as 100,0% and the “Prozentsatz des Ansetzens von Körnern bei freier Bestäubung” value is listed as 96,9%.

Regarding `O=C(O)CCCCS(=O)(=O)CCCCC(=O)O` [Beispiel 41, δ, δ' -Sulfonyldivaleriansäure], the “Anzahl von Körnern der Ähre bei freier Bestäubung” value is listed as 48,4, the “Anzahl von Körnern der Ähre im Isolator” value was 0,1, the “Prozentsatz der Sterilität” value was 99,8% and the “Prozentsatz des Ansetzens von Körnern bei freier Bestäubung” value was 88,6%.

For `O=C(O)CCCCS(=O)(=O)CCCCC(=O)O` [Beispiel 42, Natriumsalz der δ, δ'-Sulfonyldivaleriansäure], the “Anzahl von Körnern der Ähre bei freier Bestäubung” value is 47,4, the “Anzahl von Körnern der Ähre im Isolator” value is 0,1, the “Prozentsatz der Sterilität” value is 99,8% and the “Prozentsatz des Ansetzens von Körnern bei freier Bestäubung” value is 86,8%.

For `O=C(O)CCCCS(=O)(=O)CCCCC(=O)O` [Beispiel 43, Kaliumsalz der δ, δ' -Sulfonyldivaleriansäure], the “Anzahl von Körnern der Ähre bei freier Bestäubung” value is listed as 53,8, the “Anzahl von Körnern der Ähre im Isolator” value is recorded as 0,6, the “Prozentsatz der Sterilität” value is recorded as 98,8% and the “Prozentsatz des Ansetzens von Körnern bei freier Bestäubung” value is on record as 98,5%.
